Laboratory results from ChEMBL document CHEMBL3885881, “DrugMatrix”.

Species on record: Rattus norvegicus
Assay type: toxicity, organism-based, Sprague-Dawley
Conditions: in vivo, ip, route intraperitoneal, vehicle 100 % SALINE; for ABSOLUTE EOSINOPHIL / ABSOLUTE LYMPHOCYTE / ABSOLUTE MONOCYTE / ABSOLUTE SEGMENTED NEUTROPHIL / BASOPHIL / EOSINOPHIL / ERYTHROCYTE COUNT / HEMATOCRIT / HEMOGLOBIN / LEUKOCYTE COUNT / LYMPHOCYTE / MEAN CORPUSCULAR HEMOGLOBIN / MEAN CORPUSCULAR HEMOGLOBIN CONCENTRATION / MEAN CORPUSCULAR VOLUME / MONOCYTE / NEUTROPHIL / NUCLEATED RED BLOOD CELLS / PLATELET COUNT: tissue Blood; for ALANINE AMINOTRANSFERASE / ALBUMIN / ALKALINE PHOSPHATASE / ASPARTATE AMINOTRANSFERASE / BLOOD UREA NITROGEN / CARBON DIOXIDE / CHLORIDE / CHOLESTEROL / CREATINE PHOSPHOKINASE / CREATININE / GLUCOSE / LACTATE DEHYDROGENASE / LIPASE / PHOSPHORUS / POTASSIUM / SODIUM / TOTAL BILIRUBIN / TOTAL PROTEIN / URIC ACID: tissue Plasma
[1] = 16 mg/kg, 24 h, dose level Low, time 1 day
[2] = 25 mg/kg, 6 h, dose level M1, time 0.25 day
[3] = 25 mg/kg, 24 h, dose level M1, time 1 day

Description: DrugMatrix - Regimen: Single

C=CCO [ALLYL ALCOHOL]
ABSOLUTE EOSINOPHIL [1]: 29.33 CELLS/uL | ABSOLUTE LYMPHOCYTE [1]: 15204.83 CELLS/uL | ABSOLUTE MONOCYTE [1]: 174.67 CELLS/uL | ABSOLUTE SEGMENTED NEUTROPHIL [1]: 841.17 CELLS/uL | BASOPHIL [1]: 0% | EOSINOPHIL [1]: 0.17% | ERYTHROCYTE COUNT [1]: 5.13 x10E6/uL | HEMATOCRIT [1]: 33.13% | HEMOGLOBIN [1]: 12.85 G/DL | LEUKOCYTE COUNT [1]: 16.25 x10E3/uL | LYMPHOCYTE [1]: 93.83% | MEAN CORPUSCULAR HEMOGLOBIN [1]: 25.02 pg | MEAN CORPUSCULAR HEMOGLOBIN CONCENTRATION [1]: 38.82 G/DL | MEAN CORPUSCULAR VOLUME [1]: 64.5 fL | MONOCYTE [1]: 1% | NEUTROPHIL [1]: 5% | NUCLEATED RED BLOOD CELLS [1]: 0.33 /100WBC | PLATELET COUNT [1]: 1056.83 x10E3/uL | ALANINE AMINOTRANSFERASE [1]: 50.67 u/L | ALBUMIN [1]: 4.33 G/DL | ALKALINE PHOSPHATASE [1]: 273.5 u/L | ASPARTATE AMINOTRANSFERASE [1]: 75.83 u/L | BLOOD UREA NITROGEN [1]: 11.17 mg/dL | CARBON DIOXIDE [1]: 27.5 mmol/L | CHLORIDE [1]: 101.83 MEQ/L | CHOLESTEROL [1]: 67 mg/dL | CREATINE PHOSPHOKINASE [1]: 299.83 u/L | CREATININE [1]: 0.18 mg/dL | GLUCOSE [1]: 166.33 mg/dL | LACTATE DEHYDROGENASE [1]: 243.17 u/L | LIPASE [1]: 9.67 u/L | PHOSPHORUS [1]: 10.5 mg/dL | POTASSIUM [1]: 5.58 MEQ/L | SODIUM [1]: 147.05 MEQ/L | TOTAL BILIRUBIN [1]: 0.15 mg/dL | TOTAL PROTEIN [1]: 5.87 G/DL | URIC ACID [1]: 1.25 mg/dL | ABSOLUTE EOSINOPHIL [2]: 0 CELLS/uL | ABSOLUTE LYMPHOCYTE [2]: 12514.83 CELLS/uL | ABSOLUTE MONOCYTE [2]: 196.67 CELLS/uL | ABSOLUTE SEGMENTED NEUTROPHIL [2]: 2271.83 CELLS/uL | BASOPHIL [2]: 0% | EOSINOPHIL [2]: 0% | ERYTHROCYTE COUNT [2]: 5.42 x10E6/uL | HEMATOCRIT [2]: 35.1% | HEMOGLOBIN [2]: 13.58 G/DL | LEUKOCYTE COUNT [2]: 14.98 x10E3/uL | LYMPHOCYTE [2]: 83.83% | MEAN CORPUSCULAR HEMOGLOBIN [2]: 25.07 pg | MEAN CORPUSCULAR HEMOGLOBIN CONCENTRATION [2]: 38.7 G/DL | MEAN CORPUSCULAR VOLUME [2]: 64.73 fL | MONOCYTE [2]: 1.33% | NEUTROPHIL [2]: 14.83% | NUCLEATED RED BLOOD CELLS [2]: 0 /100WBC | PLATELET COUNT [2]: 1079 x10E3/uL | ALANINE AMINOTRANSFERASE [2]: 87.5 u/L | ALBUMIN [2]: 4.43 G/DL | ALKALINE PHOSPHATASE [2]: 238.5 u/L | ASPARTATE AMINOTRANSFERASE [2]: 133.17 u/L | BLOOD UREA NITROGEN [2]: 10.33 mg/dL | CARBON DIOXIDE [2]: 27.67 mmol/L | CHLORIDE [2]: 101.5 MEQ/L | CHOLESTEROL [2]: 58.83 mg/dL | CREATINE PHOSPHOKINASE [2]: 180 u/L | CREATININE [2]: 0.12 mg/dL | GLUCOSE [2]: 158.17 mg/dL | LACTATE DEHYDROGENASE [2]: 175.17 u/L | LIPASE [2]: 10.67 u/L | PHOSPHORUS [2]: 11.65 mg/dL | POTASSIUM [2]: 5.53 MEQ/L | SODIUM [2]: 144.52 MEQ/L | TOTAL BILIRUBIN [2]: 0.12 mg/dL | TOTAL PROTEIN [2]: 5.95 G/DL | URIC ACID [2]: 1.33 mg/dL | ABSOLUTE EOSINOPHIL [3]: 41.33 CELLS/uL | ABSOLUTE LYMPHOCYTE [3]: 12363.17 CELLS/uL | ABSOLUTE MONOCYTE [3]: 291.83 CELLS/uL | ABSOLUTE SEGMENTED NEUTROPHIL [3]: 987 CELLS/uL | BASOPHIL [3]: 0% | EOSINOPHIL [3]: 0.33% | ERYTHROCYTE COUNT [3]: 5.25 x10E6/uL | HEMATOCRIT [3]: 35.35% | HEMOGLOBIN [3]: 13.55 G/DL | LEUKOCYTE COUNT [3]: 13.68 x10E3/uL | LYMPHOCYTE [3]: 90.33% | MEAN CORPUSCULAR HEMOGLOBIN [3]: 25.85 pg | MEAN CORPUSCULAR HEMOGLOBIN CONCENTRATION [3]: 38.38 G/DL | MEAN CORPUSCULAR VOLUME [3]: 67.32 fL | MONOCYTE [3]: 2.17% | NEUTROPHIL [3]: 7.17% | NUCLEATED RED BLOOD CELLS [3]: 0.33 /100WBC | PLATELET COUNT [3]: 960.33 x10E3/uL | ALANINE AMINOTRANSFERASE [3]: 143 u/L | ALBUMIN [3]: 4.27 G/DL | ALKALINE PHOSPHATASE [3]: 289.67 u/L | ASPARTATE AMINOTRANSFERASE [3]: 211.17 u/L | BLOOD UREA NITROGEN [3]: 12.5 mg/dL | CARBON DIOXIDE [3]: 28.33 mmol/L | CHLORIDE [3]: 100.67 MEQ/L | CHOLESTEROL [3]: 75.17 mg/dL | CREATINE PHOSPHOKINASE [3]: 317.5 u/L | CREATININE [3]: 0.22 mg/dL | GLUCOSE [3]: 148.33 mg/dL | LACTATE DEHYDROGENASE [3]: 194.67 u/L | LIPASE [3]: 9.33 u/L | PHOSPHORUS [3]: 11.4 mg/dL | POTASSIUM [3]: 6.21 MEQ/L | SODIUM [3]: 147.37 MEQ/L | TOTAL BILIRUBIN [3]: 0.17 mg/dL | TOTAL PROTEIN [3]: 5.9 G/DL | URIC ACID [3]: 1.15 mg/dL
